Measured values published in EP0769958B1, “INHIBITORS OF LEUKOCYTE ADHESION” (ATHENA NEUROSCIENCES, INC., priority 1994, dated 1996).
“Also recorded” adds a separate entry of the source. Bridge positions count the residues as written; N and C are the ends. Ends that are not written are not given here. Peptide text beside a SMILES is read from it.

Experiments:
VLA-4 = biological target: T1, VLA-4 (Homo sapiens, UniProt P05556+P13612); assay: Jurkat interaction with soluble VCAM-1 (sVCAM-1-IgG), FACS assay of Example 6; assay type: cell-based; conditions: for inhibition of interaction of sVCAM-1-IgG with Jurkat cells: Mn+2 and 15/7 present
T1 construct: endogenous in cells; host or cells: Jurkat cells
Source text: VCAM-1 was expressed as a soluble fusion protein. The construct expressed the seven extracellular domains of VCAM-1 on the N-terminus, and the human IgG1 heavy chain constant region on the C-terminus. Interaction of the soluble construct with Jurkat cells was monitored by standard FACS analysis, using a fluorescently labeled antibody directed against the construct's human IgG tail as a marker.
The activity of VLA-4 can be regulated. 15/7 is a monoclonal antibody that recognizes an activated conformation of VLA-4 and locks the molecule in the active state, thereby enhancing VLA-4-mediated cell adhesion.
Peptides of different length, and with various amino acid substitutions were synthesized based on the sequence of the CDR3 region of the antibody 21/6 (EGYYGNYGVYA) (SEQ ID No. 4). The peptides were then tested for their ability to inhibit Jurkat interaction with sVCAM-1-IgG in the FACS assay described in Example 6. IC50 values were determined for each peptide using this assay.

VLA-4 integrin = biological target: T2, VLA-4 integrin (Homo sapiens, UniProt P05556+P13612); assay: Adhesion of Jurkat cells to peptide-BSA conjugates coated onto plastic; assay type: cell-based; conditions: peptide conjugated to carrier protein, exposed to the plastic at 3 µg/mL; Figure 1
T2 construct: endogenous in cells; host or cells: Jurkat cells
Description: The peptide used in this example was synthesized based on the sequence of the anti-α4 integrin antibody 21/6 (CGGEGYYGNYGVYA, SEQ ID No. 1). In this example the peptide was conjugated to a large carrier protein via the linker region that was synthesized as part of the peptide itself (in italics). The conjugated peptide was then coated onto plastic, and the ability of the conjugate to support cell adhesion was tested. This method is based on a report by Wayner and Kovach^40.
As a positive control, the fibronectin peptide described by Wayner was synthesized, conjugated to carrier protein, and tested for cell adhesion in parallel with SEQ ID NO. 1 (CGGEILDVPST, SEQ ID No. 2). Both peptide conjugates were exposed to the plastic at a concentration of 3 µg/mL. […] Adhesion was not affected by an antibody against β2 integrin (IOT18), a distinct cell adhesion molecule that is also expressed on the surface of Jurkat cells. Thus, like peptide SEQ ID NO. 2, peptide SEQ ID NO. 1 interacts with Jurkat in an α4 integrin-specific fashion.

T1 sequence (P13612 34-1032): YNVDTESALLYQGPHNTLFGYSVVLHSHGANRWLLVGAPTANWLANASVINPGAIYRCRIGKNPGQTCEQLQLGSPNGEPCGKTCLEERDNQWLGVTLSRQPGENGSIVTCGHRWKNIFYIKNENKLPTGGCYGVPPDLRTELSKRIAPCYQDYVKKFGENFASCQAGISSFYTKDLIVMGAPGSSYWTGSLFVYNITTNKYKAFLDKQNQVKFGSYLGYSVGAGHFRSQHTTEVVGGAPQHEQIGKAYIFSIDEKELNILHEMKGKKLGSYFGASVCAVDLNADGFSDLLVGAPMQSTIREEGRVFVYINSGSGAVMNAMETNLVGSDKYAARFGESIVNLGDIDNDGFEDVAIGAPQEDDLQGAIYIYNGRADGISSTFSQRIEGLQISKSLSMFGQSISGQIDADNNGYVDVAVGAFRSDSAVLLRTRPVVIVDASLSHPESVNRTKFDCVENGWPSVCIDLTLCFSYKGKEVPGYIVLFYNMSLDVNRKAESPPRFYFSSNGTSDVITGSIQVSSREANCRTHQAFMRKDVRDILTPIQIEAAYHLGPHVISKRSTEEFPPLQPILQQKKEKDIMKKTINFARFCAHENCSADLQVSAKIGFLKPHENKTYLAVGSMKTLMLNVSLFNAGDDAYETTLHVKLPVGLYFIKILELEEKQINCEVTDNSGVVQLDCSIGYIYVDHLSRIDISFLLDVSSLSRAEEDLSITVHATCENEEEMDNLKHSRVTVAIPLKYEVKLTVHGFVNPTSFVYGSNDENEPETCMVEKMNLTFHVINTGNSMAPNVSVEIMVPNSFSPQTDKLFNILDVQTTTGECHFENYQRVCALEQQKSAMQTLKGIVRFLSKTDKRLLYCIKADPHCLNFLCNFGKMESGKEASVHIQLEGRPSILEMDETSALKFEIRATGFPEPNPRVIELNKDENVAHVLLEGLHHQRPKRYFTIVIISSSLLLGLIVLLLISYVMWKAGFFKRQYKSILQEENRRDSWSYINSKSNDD
T1 sequence (P05556 21-798): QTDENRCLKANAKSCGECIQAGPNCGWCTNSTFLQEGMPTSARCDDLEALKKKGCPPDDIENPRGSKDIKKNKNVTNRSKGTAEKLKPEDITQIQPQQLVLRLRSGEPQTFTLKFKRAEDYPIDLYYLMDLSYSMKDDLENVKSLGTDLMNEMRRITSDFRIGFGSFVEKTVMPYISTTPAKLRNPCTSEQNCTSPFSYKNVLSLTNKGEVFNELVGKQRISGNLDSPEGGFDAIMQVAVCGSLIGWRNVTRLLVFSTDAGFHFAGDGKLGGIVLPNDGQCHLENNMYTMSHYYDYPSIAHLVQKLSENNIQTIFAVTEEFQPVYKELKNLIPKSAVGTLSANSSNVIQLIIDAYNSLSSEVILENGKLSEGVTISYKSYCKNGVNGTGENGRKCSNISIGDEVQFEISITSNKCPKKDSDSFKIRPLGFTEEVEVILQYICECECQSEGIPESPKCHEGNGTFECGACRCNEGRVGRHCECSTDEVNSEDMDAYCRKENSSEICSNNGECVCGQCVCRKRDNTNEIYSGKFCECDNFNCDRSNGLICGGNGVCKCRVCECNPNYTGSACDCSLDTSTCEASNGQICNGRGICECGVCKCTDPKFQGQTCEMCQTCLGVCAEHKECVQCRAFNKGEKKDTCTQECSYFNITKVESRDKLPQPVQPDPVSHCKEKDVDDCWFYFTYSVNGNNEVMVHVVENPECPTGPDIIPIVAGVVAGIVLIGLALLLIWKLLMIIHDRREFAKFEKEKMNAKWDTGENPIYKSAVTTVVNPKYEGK
T2 sequence (P13612 34-1032): as the sequence (P13612 34-1032) above
T2 sequence (P05556 21-798): as the sequence (P05556 21-798) above

adhesion of Jurkat cells to immobilized peptide conjugate (VLA-4 integrin)	Compound	inhibition of interaction of sVCAM-1-IgG with Jurkat cells (VLA-4; result in words)	also measured
–	NC(=O)C[C@@H]1NC(=O)CNC(=O)[C@H](Cc2ccccc2)NC(=O)CNC(=O)[C@@H](N)CSSC[C@@H](C(=O)O)NC(=O)[C@H](Cc2ccc(O)cc2)NC(=O)[C@H](CO)NC(=O)[C@H](Cc2c[nH]cn2)NC(=O)[C@H](CCC(=O)O)NC1=O [SEQ ID No. 31] (H-CGFGNEHSYC-OH; disulfide 1-10)	particularly good inhibition	–
–	NC(=O)C[C@@H]1NC(=O)CNC(=O)[C@H](Cc2ccccc2)NC(=O)[C@H](Cc2ccc(O)cc2)NC(=O)[C@@H](N)CSSC[C@@H](C(=O)O)NC(=O)[C@H](Cc2ccc(O)cc2)NC(=O)[C@H](CO)NC(=O)[C@H](Cc2c[nH]cn2)NC(=O)[C@H](CCC(=O)O)NC1=O [SEQ ID No. 63] (H-CYFGNEHSYC-OH; disulfide 1-10)	–	IC50 (VLA-4; per Example 6: inhibition of Jurkat interaction with sVCAM-1-IgG, FACS, in the presence of Mn+2 and 15/7): ≤ 50 µM
–	CC[C@H](C)[C@@H]1NC(=O)[C@H](CCC(N)=O)NC(=O)[C@H]([C@@H](C)O)NC(=O)[C@H](CCCNC(=N)N)NC(=O)[C@@H](N)CSSC[C@@H](C(=O)O)NC(=O)[C@H](CO)NC(=O)[C@H](CC(=O)O)NC1=O [SEQ ID No. 35] (H-CRTQIDSC-OH; disulfide 1-8)	–	inhibitory activity compared with parent or linear peptide (VLA-4; result in words, relative to SEQ ID No. 4 (Nos. 27, 17) or SEQ ID No. 34 (No. 35)): more active than the linear peptide
–	STLTMNPVSF [SEQ ID No. 40]	inhibitory; also recorded: quite active in a linear form	–
bound equally well	CGGEILDVPST [SEQ ID No. 2, fibronectin peptide described by Wayner, conjugated to carrier protein; positive control, reference compound]	–	–
bound equally well	CGGEGYYGNYGVYA [SEQ ID No. 1]	–	–
